Test results reported in PubChem BioAssay (NCI).
Where “and” joins values, the source holds several entries; their conditions need not be identical. Equal values may be shown once.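 Step 1: Grow cells in 96-well plates. Step 2: Expose to compound for 48 hours at 5 concentrations. Step 3: Interpolate endpoints linearly; if unreached, use highest concentration. At the GI50, growth is halved. TGI: concentration producing complete growth inhibition.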

What was measured:
Experiment in all cases: NCI tumour cell line growth inhibition, 48 h
MDA-MB-231 breast = system: MDA-MB-231 breast
PC-3 prostate = system: PC-3 prostate
SR leukemia = system: SR leukemia
T-47D breast = system: T-47D breast
UO-31 renal = system: UO-31 renal

Compound	TGI (MDA-MB-231 breast)	TGI (PC-3 prostate)	TGI (SR leukemia)	TGI (T-47D breast)	TGI (UO-31 renal)	GI50 (MDA-MB-231 breast)	GI50 (PC-3 prostate)	GI50 (SR leukemia)	GI50 (T-47D breast)	GI50 (UO-31 renal)
CC(=O)On1c(-c2ccccc2-c2nc3ccccc3n2OC(C)=O)nc2ccccc21	> 100 µM	58.6 µM	> 100 µM	> 100 µM	> 100 µM	–	–	–	–	–
COc1ccc2c(c1)CC[C@H](O)/C2=C/c1cc(OC)c(OC)c(OC)c1	> 100 µM	> 100 µM	> 100 µM	52.8 µM	> 100 µM	0.604 µM	0.0855 µM	0.0546 µM	0.0354 µM	0.222 µM
COc1nc(N)nc2c1ncn2C1OC(CO)C(O)C1O (stereo unspecified)	> 5000 µM	> 5000 µM	–	> 5000 µM	> 5000 µM	> 5000 µM	> 5000 µM	–	> 5000 µM	> 5000 µM
COc1ccc(OC)c(-c2cc(-c3ccc(Cl)cc3)nn2-c2ccc(S(=O)(=O)NC(C)=O)cc2)c1	–	21.9 µM	–	36.1 µM	> 100 µM	–	3.61 µM	–	13.1 µM	34.8 µM
CCn1c(-c2cc3ccccc3cc2O)nn(C(=O)c2c(Cl)cccc2Cl)c1=S	> 50 µM	> 50 µM	> 50 µM	> 50 µM	24.8 µM	44.4 µM	> 50 µM	17.6 µM	21 µM	10.5 µM
CN/N=C(\C)C(CN(C)C)C(c1ccccc1)c1c(O)c2ccccc2oc1=O (stereo unspecified)	> 100 µM	> 100 µM	> 100 µM	> 100 µM	> 100 µM	–	–	–	–	–
O=C1/C(=C\c2ccccn2)c2ccccc2N1c1c(Cl)cccc1Cl	5.74 µM	> 26.3 µM	> 100 µM	9.66 µM	3.11 µM	2.17 µM	2.79 µM	5.07 µM	2.6 µM	1.47 µM
N#CCN/C=C\C(=O)c1ccc(Cl)cc1	> 100 µM	> 100 µM	44.1 µM	> 100 µM	> 100 µM	31.8 µM	29.5 µM	11.5 µM	33.9 µM	42.1 µM
COc1ccc(/C=N\Nc2ccc([N+](=O)[O-])cn2)cc1OC	> 100 µM	> 100 µM	> 100 µM	–	> 100 µM	6.82 µM	> 100 µM	> 100 µM	–	3.14 µM
Cc1cc(CC(C)CC(C)(C)C)n(O)c(=O)c1 (stereo unspecified) (tested in a mixture with another compound)	> 48.5 µM	40 µM	2.97 µM	> 43.6 µM	7.01 µM	0.45 µM	0.601 µM	0.286 µM	0.725 µM	0.379 µM
O=Cc1ccc(-c2ccc(-c3nc4ccccc4o3)cc2)o1	61.6 µM	> 100 µM	–	> 100 µM	68.5 µM	21 µM	30.3 µM	–	34.8 µM	22.7 µM
Cc1ccc(C)c(C2NC(=O)c3ccccc3N2)c1 (stereo unspecified)	72.7 µM	28.3 µM	> 27.4 µM	> 100 µM	> 100 µM	–	–	–	–	–
N#CC1=C(N)NC(N2CCOCC2)=NC12Nc1ccccc1N2	70.3 µM	> 100 µM	> 100 µM	> 100 µM	81.4 µM	15.3 µM	46.1 µM	28.8 µM	59.1 µM	12.5 µM
Cc1cc(C)c(Cn2cnc3c(Cl)ncnc32)c(C)c1CCl	> 100 µM	> 100 µM	47.4 µM	95.3 µM	> 100 µM	> 100 µM	> 100 µM	12.7 µM	24.9 µM	> 100 µM
CN1C(=O)N[C@H]2[C@@H]3NC(=O)c4ccc(Br)n4[C@@H]3C[C@]21O	2.69 µM	5.42 µM	0.639 µM	0.23 µM	6.75 µM	0.165 µM	0.475 µM	0.0335 µM	0.0313 µM	1.81 µM
O=c1c(Cl)c(Cl)c(=O)c2sc3cc(Cl)ccc3[nH]c1=2	7.71 µM	> 100 µM	21.5 µM	> 100 µM	36 µM	–	–	–	–	–
COc1cc(-c2nc(-c3nc4ccccc4[nH]3)cc3c2[nH]c2ccccc23)cc(OC)c1OC	> 100 µM	> 100 µM	> 100 µM	> 100 µM	> 100 µM	8.38 µM	2.64 µM	9.5 µM	2.92 µM	3.62 µM
NC(=O)c1cccc(Nc2nccc(Nc3cccc4[nH]ncc34)n2)c1	> 25 µM	> 25 µM	> 25 µM	> 17.9 µM	> 25 µM	8.02 µM	8.73 µM	8.72 µM	2.99 µM	12.4 µM
CN(Cc1cc(Cl)cc(Cl)c1)CC(C(=O)c1ccccc1)c1ccccc1 (stereo unspecified)	23.5 µM	29.3 µM	> 100 µM	8.68 µM	19.9 µM	–	–	–	–	–
COC(=O)c1cc(O)c2c(c1C(=O)OC)C[C@H]1[C@@H]3CC=C4C[C@@H](O)CC[C@]4(C)[C@H]3CC[C@]21C	7.41 µM	13.3 µM	> 100 µM	6.91 µM	4.26 µM	2.52 µM	2.51 µM	3.41 µM	1.51 µM	2.18 µM
CCN(CC)CCCC(C)N=C(C1=C(C(=NC(C)CCCN(CC)CC)c2cccc(OC)c2)C(=O)NC1=O)c1cccc(OC)c1 (stereo unspecified)	3.78 µM	5.12 µM	4.31 µM	10.4 µM	4.27 µM	1.17 µM	1.47 µM	1.36 µM	2.02 µM	1.39 µM
COc1cc(CNc2ccccc2C(=O)N2CCN(C(=O)c3cc(-c4cc(OC)c(OC)c(OC)c4)n4nc(-c5ccccc5)cc4n3)CC2)cc(OC)c1OC	67.8 µM	> 100 µM	> 100 µM	–	> 100 µM	7.02 µM	2.35 µM	0.581 µM	–	1.54 µM
OCC(O)c1nc2ccc3[nH]ncc3c2c2c1CCCC2 (stereo unspecified)	> 50 µM	> 50 µM	4.52 µM	> 50 µM	> 50 µM	1.75 µM	1.43 µM	0.658 µM	1.6 µM	1.55 µM

Compound	TGI (MDA-MB-231 breast)	TGI (PC-3 prostate)	TGI (SR leukemia)	TGI (T-47D breast)	TGI (UO-31 renal)	GI50 (MDA-MB-231 breast)	GI50 (PC-3 prostate)	GI50 (SR leukemia)	GI50 (T-47D breast)	GI50 (UO-31 renal)
Cc1sc2c(c1C)C(c1ccc(Cl)cc1)=N[C@@H](CC(=O)OC(C)(C)C)c1nnc(C)n1-2	26 µM and 18.5 µM	24.6 µM and 16.7 µM	18.7 µM and 17.1 µM	18.8 µM and 19 µM	13.8 µM and 14.2 µM	0.714 µM and 0.304 µM	1.58 µM and 1.08 µM	0.229 µM and 0.0451 µM	0.342 µM and 0.214 µM	0.0634 µM and 0.0301 µM
Cn1c2ccc(Br)cc2c2c3c(c4c5ccccc5[nH]c4c21)C(=O)N(O)C3=O	0.607 µM	–	2.64 µM	0.737 µM	0.308 µM	0.21 µM	–	0.0228 µM	0.109 µM	0.0917 µM
Cc1cn2c(/C=N/N=C(N)N)c(-c3cccs3)nc2s1	5.79 µM	12.4 µM	3.99 µM	25.9 µM	38.9 µM	1.9 µM	2.99 µM	2 µM	5.51 µM	16.6 µM
CCC(CNc1cc(OC)cc2cccnc12)NC1CCCCC1 (stereo unspecified)	> 100 µM	–	96.1 µM	64.3 µM	> 100 µM	40.7 µM	–	24.5 µM	17.2 µM	4.47 µM
O=C(OCc1ncc(-c2ccc(C(F)(F)F)cc2)c(NC2CCCCCC2)n1)c1c(F)c(F)c(F)c(F)c1F	23.2 µM	26.7 µM	12.4 µM	3.99 µM	21.3 µM	9.93 µM	12 µM	3.13 µM	1.97 µM	8.12 µM
Cc1cc(N2CCSCC2)nc(NC2CCCC(Nc3ccnc4cc(Cl)ccc34)C2)n1 (stereo unspecified)	3.89 µM	4.52 µM	2.35 µM	5.9 µM	2.77 µM	1.95 µM	2.1 µM	0.452 µM	2.41 µM	1.41 µM
COc1ccc(OC)c2c1[nH]c(=O)c1c3ncccc3cn21	> 100 µM	> 100 µM	> 100 µM	> 100 µM	> 100 µM	4.87 µM	4.73 µM	3.43 µM	3.54 µM	2.49 µM
Cc1nc(N2CCC3(CC2)CO[C@@H](C)[C@H]3N)c(CO)nc1Sc1ccnc(N)c1Cl	> 100 µM	> 100 µM	> 100 µM	> 100 µM	> 100 µM	> 100 µM	> 100 µM	11.9 µM	32.4 µM	0.973 µM
CC(C)(C)CC(C)(C)NCc1cc(C(C)(C)C)cc(CNC(C)(C)CC(C)(C)C)c1O	3.78 µM	12.2 µM	5.44 µM	5.14 µM	9.91 µM	1.21 µM	2.86 µM	2.14 µM	2.09 µM	1.92 µM
CO[C@H](C(=O)[C@@H](O)[C@@H](C)O)[C@@H]1Cc2cc3cc(OC4CC(OC5CC(O)C(O)C(C)O5)C(O)C(C)O4)c(C)c(O)c3c(O)c2C(=O)[C@H]1OC1CC(OC2CC(OC3CC(C)(O)C(O)C(C)O3)C(O)C(C)O2)C(O)C(C)O1 (stereo partly specified)	–	–	–	–	–	–	–	–	–	0.132 µg/mL and 0.225 µg/mL
COc1cc(Nc2nc3ccccc3cc2C(=O)Nc2ccc(F)c(F)c2)cc(OC)c1OC	5.69 µM	7.9 µM	9.4 µM	6.39 µM	9.35 µM	2.06 µM	2.21 µM	2.71 µM	1.84 µM	2.51 µM
O=C(/C=C/c1ccccc1)n1c(-c2ccc(Cl)cc2)nc2ccccc21	5.18 µM	6.73 µM	1.88 µM	7.68 µM	3.55 µM	1.88 µM	1.91 µM	0.379 µM	1.73 µM	1.1 µM
CNC(=O)Cc1nc(-c2cccc(NS(=O)(=O)c3c(F)cccc3F)c2F)c(-c2ccnc(Nc3ccccc3)n2)s1	> 15.3 µM	> 50 µM	> 50 µM	> 41.1 µM	13.7 µM	1.04 µM	20.9 µM	8.07 µM	6.23 µM	1.22 µM
Cc1cccc(C)c1NC(=O)Nc1ccc(S(N)(=O)=O)cc1	> 100 µM	> 100 µM	> 100 µM	> 100 µM	> 100 µM	–	–	–	–	–
COc1ccc(-c2c3c(n(C4OC(COC(C)=O)C(OC(C)=O)C(OC(C)=O)C4OC(C)=O)c(=S)c2C#N)CC(C)(C)CC3=O)cc1 (stereo unspecified)	> 100 µM	> 100 µM	74.7 µM and > 100 µM	> 100 µM	> 100 µM	–	–	–	–	–
COc1ccc2nc3cc([N+](=O)[O-])ccc3c(NCCCN(C)C)c2c1	3.45 µM	1.55 µM	–	–	6.1 µM	0.394 µM	–	0.0794 µM	–	1.63 µM
CCN(CC)CCCNC(=O)c1c2c(n3ccccc13)C(=O)c1ncccc1C2=O	9.73 µM	6.65 µM	> 100 µM	3.61 µM	5.07 µM	0.404 µM	0.616 µM	0.485 µM	1.34 µM	1.59 µM
Cc1ccc(S(=O)(=O)NNC(=O)c2cc(C)c(C)cc2N)cc1	> 100 µM	> 100 µM	> 100 µM	> 100 µM	> 100 µM	–	–	–	–	–
COc1cccc(C2c3cc4c(cc3OC(N3CCCC3)C2C)OCO4)c1O (stereo unspecified)	45.8 µM	73.5 µM	25 µM	> 94.9 µM	46.7 µM	–	–	–	–	–
C=C(Nc1ccc([N+](=O)[O-])cc1[N+](=O)[O-])c1c/c(=N\NC(N)=S)c2ccccc2o1	> 100 µM	> 100 µM	68.7 µM	–	> 100 µM	–	–	–	–	–
C=C1CCC2C(C)(COC(=O)CC)C(OC(=O)CC)CCC2(C)C1C/C=C1/C(=O)OCC1OC(=O)CC (stereo unspecified)	5.19 µM	4.91 µM	5.28 µM	–	3.38 µM	2.31 µM	2.17 µM	1.58 µM	–	1.88 µM
COc1ccccc1CNCCCN1C(=O)c2ccc3c4c(ccc(c24)C1=O)C(=O)N(CCCCNCCCN)C3=O	13.2 µM	9.82 µM	> 23.6 µM	3.65 µM	14.4 µM	2.64 µM	2.29 µM	0.362 µM	1.13 µM	3.5 µM
COc1cccc(NC(=O)c2sc3nc4c(cc3c2N)C(=O)CCC4)c1	7.59 µM	> 100 µM	> 100 µM	–	> 100 µM	0.209 µM	0.11 µM	0.133 µM	–	0.449 µM
